System: Escherichia coli (E. coli DSM 682)
Assay: Bactericidal activity of cleaner/disinfecting formulations according to DIN EN 1276-2010 under dirty conditions
Assay type: cell-based
Settings: no ethoxylated alkanol, 0.3% bovine albumin, 35° C., 5 min contact time
Protocol: For biological activity testing, the following microorganisms were used: Escherichia coli(E. coli DSM 682)
Lutensol® XP 40 and benzalkonium chloride (BAC) were formulated into a dilutable concentrated hard-surface cleaner. For comparison, corresponding formulations containing Lutensol® XP 70 or Lutensol® A 7 N instead of Lutensol® XP 40 were also prepared. The finished formulations were pre-dissolved 1:80 in standardized hard water (DIN EN 1276-2010) and then diluted to 80% by adding 1 ml of the inoculate and 1 ml of bovine albumin solution to 8 ml of the pre-dissolved cleaner, so that in-test a dilution of 1:100 was obtained.
(§1) Antimicrobial testing of the above formulations in 1:100 dilution was done according to European Standard (DIN EN 1276-2010) under dirty conditions, i.e. additional soiling of 0.3% bovine albumin at 35° C. and 5 mi contact time. Neutralization was done using the Saponin-containing neutralizer as described in DIN EN 1276 (30 g/l Polysorbate 80+30 g/l Saponin+3 g/l Lecithin). Results are documented in the table below as logarithmic reduction (Ig R) in comparison to the number of microorganisms used for the test.
Benzalkonium chloride (BAC) and one of Lutensol® XP 30, Lutensol® XP 40 and Lutensol® XP 50 were formulated into a dilutable concentrated hard-surface cleaner. The finished formulations were pre-dissolved 1:80 in standardized hard water (DIN EN 1276-2010) and then diluted to 80% by adding 1 ml of the inoculate and 1 ml of bovine albumin solution to 8 ml of the pre-dissolved cleaner, so that in-test a dilution of 1:100 was obtained.
as §1, with “5 min” for “5 mi”, “test. […]” for “test.”

CCCCCCCCCCCC[N+](C)(C)Cc1ccccc1.[Cl-] [BAC, lauryl dimethyl benzyl ammonium chloride]
E. coli logarithmic reduction (lg R) (Example 1, BAC 40 ppm in-test, 1:100 dilution, pH ca. 8): <0.87 lg R
E. coli logarithmic reduction (lg R) (Example 2, BAC 40 ppm in-test): 0.4 lg R

CCCCCCCCCC[N+](C)(C)CCCCCCCCCC.[Cl-] [DDAC, didecyldimethylammonium chloride]
E. coli logarithmic reduction (lg R) (Example 3, DDAC 20 ppm in-test): 0.7 lg R
